Experimental data as given in paper PMC10269072, “Predicting Optimal Antimalarial Drug Combinations from a Standardized Plasmodium falciparum Humanized Mouse Model” (Antimicrobial Agents and Chemotherapy, 2023).

Tests used:
[1] = test system: P. falciparum 3D7^0087/N9; experiment: PfalcHuMouse model: therapeutic efficacy (parasite clearance, day of recrudescence, cure) in P. falciparum-infected humanized NSG mice; assay type: in vivo, Plasmodium falciparum; settings: for exposure leading to 95% probability of cure: logistic regression of historical data; for day after which no recrudescence occurred (DoR): oral monotherapy, historical data, different dose levels and schedules, drugs with curative exposures in the data set
Description: To implement the PfalcHuMouse model for analysis of combinations, we first defined the variables of therapeutic response and their interpretation in the context of this analysis. These variables were parasite clearance (PC), parasite recrudescence (PR), and cure (Fig. 2a). […] In our studies, we estimated PC by measuring the ratio of parasitemia in blood at 48-h intervals (pDn/pDn+2, where pD stands for parasitemia and n indicates the day of the assay), which was a simplified alternative of the classical approach and is frequently used in clinical studies. Conversely, PR depends on the number of viable parasites remaining in the body that could proliferate after noneffective treatment and is not systematically used to measure parasite killing in vivo. To test PR validity, we hypothesized that the time point for recrudescent parasitemia to reach the value at the onset of drug treatment (i.e., day of recrudescence [DoR]) correlated with the number of parasites that survived antimalarial treatment ([35]). […] It is important to note that both DoRs, days 0 and 60, represented not quantifiable magnitudes but labels of specific conditions (i.e., therapeutic failure and cure, respectively).
Experimental infections were carried out as previously described ([12]), with minor modifications. Briefly, NSG mice were engrafted with hE by intraperitoneal daily injections of 1-mL hE suspensions until a minimum of 40% chimerism in peripheral blood was achieved (typically10 days of injections). The hE-engrafted mice (HuMice) were infected with 0.3 mL of a suspension of pooled blood collected by aseptic cardiac puncture from CO2-euthanized donor HuMice harboring a parasitemia of 5 to 10% P. falciparum 3D7^0087/N9.
(§1) Before drug administration, each infected mouse was randomly assigned to its corresponding treatment. […] The treatments were administered by oral gavage with 20-gauge straight reusable feeding needles (Fine Science Tools GmbH, Heidelberg, Germany). The volume of administration for the per os (p.o.) route was 10 mL/kg of body weight unless otherwise stated.
The quantification of parasitemia at different time points after the infection was performed by flow cytometry as previously described ([46]). Briefly, 2 μL of blood was taken from the lateral tail vein of HuMice and stained with SYTO-16 (Fisher Scientific), a membrane-permeable nonselective fluorescent nucleic acid dye to detect intraerythrocytic parasites, and TER119-phycoerythrin monoclonal antibody (Miltenyi Biotec, Bergisch Gladbach, Germany) as a marker of murine erythrocytes, exactly as described. The samples were acquired and analyzed in a Attune NxT acoustic focusing flow cytometer (Thermo Fisher Scientific, Waltham, MA). The limit of quantification was set to 0.01%, where a minimum of 100 infected events was considered the minimal statistically significant sample (~10^6 total erythrocytes counted for detection). Parasitemia was expressed as the percentage of parasitized erythrocytes with respect to the total erythrocytes in circulation and/or as the absolute concentration of circulating parasitized erythrocytes. For qualitative assessment of blood samples from infected mice, blood smears stained with 10% (vol/vol) Giemsa in saline buffer (0.015 M NaCl, 0.001 M phosphate buffer [pH 7.0]) were prepared and analyzed as described previously ([56]) in a Zeiss Primo Star 4 microscope (Thermo Fisher Scientific) at a magnification of ×100.
The treated mice that reached the limit of detection by standard flow cytometry (<0.01% from total circulating erythrocytes) after pharmacological treatment were maintained until day 60 of study.

[2] = Concentration of drugs in whole blood of P. falciparum 3D7^0087/N9-infected HuMice after oral dosing (LC-MS/MS, PK analysis); assay type: in vivo, mice; settings: for AUC(0-t) / Cmax / Tmax / AUC0toTlast: mouse, in vivo; for AUC(0-t): AUC0toTlast
Method: as §1
The concentrations of drugs were measured in whole blood of P. falciparum 3D7^0087/N9-infected HuMice since the amount of plasma that could be obtained from each mouse was very low. Samples of peripheral blood (25 μL) were taken at different time points after dosing, mixed with 25 μL of 10.9 mM potassium oxalate and 59.5 mM sodium fluoride in Milli-Q water, and immediately frozen on a thermal block at −80°C. The frozen samples were stored at −80°C until analysis. Blood from P. falciparum 3D7^0087/N9-infected HuMice harboring a parasitemia of ~1.4% was used for preparation of standard curves, calibration, and quality control samples. The drugs were extracted from 10 μL of lysates, obtained by protein precipitation of blood samples, by using standard liquid-liquid extraction methods. The samples were analyzed by liquid chromatography-tandem mass spectrometry (LC-MS/MS) for quantification in Waters Micromass ultrahigh-performance triple quadrupole (UPLC-TQD) (Waters, Manchester, UK) mass spectrometers.
Multivariate linear regression, logistic regression, and descriptive statistics were carried out using GraphPad Prism 9.0 (GraphPad Software, San Diego, CA). The comparison of regression models was executed using the Akaike information criterion ([57]). Probability values of <0.05 were considered significant. Phoenix WinNonlin 8.2 (Certara, St. Louis, MO) was used for PK standard analysis.

[3] = Blood partitioning: distribution of drugs in plasma, erythrocytes and infected erythrocytes of the PfalcHuMouse; assay type: in vivo, mice; settings: for fraction associated with circulating erythrocytes / fraction found in plasma: mouse, in vivo
Description: Given their physicochemical properties, both ferroquine and piperaquine might accumulate in infected erythrocytes ([41]), so we mined data on the distribution of these drugs in plasma, erythrocytes, and infected erythrocytes of the PfalcHuMouse from previous blood partitioning studies in unrelated drug discovery programs. Approximately 97.5% of both ferroquine and piperaquine was associated with circulating erythrocytes, while only 2.5% was found in plasma. For piperaquine, the accumulation was even higher in erythrocytes of infected individuals (>99%). Moreover, as previously reported ([13]), there was no sequestration of P. falciparum in vascular endothelium of the PfalcHuMouse. Therefore, the contribution of drug accumulated in mature parasites circulating in blood might be relevant, especially in proliferating parasites exposed to noninhibitory concentrations. Consequently, we corrected this effect on drug exposure in blood by dividing the total drug exposure levels in blood by the number of infected erythrocytes in circulation for each animal in the study.

[4] = artefenomel plus piperaquine model, intercept 102.8, n = 40, Tjur's R^2 = 0.91
[5] = ferroquine plus artefenomel model, intercept 17.2, n = 50, Tjur's R^2 = 0.31

In the case of Clc1ccc2c(N3CCN(CCCN4CCN(c5ccnc6cc(Cl)ccc56)CC4)CC3)ccnc2c1 [piperaquine], the “coefficient of log10AUC in logistic model of cure log(p/1−p)” value (“coefficient … of cure log(p/1−p)” for short) [1, 4] is reported as 24.2, the “exposure leading to 95% probability of cure” value ([1]; monotherapy) is reported as 3.47 × 10^−3 nmol/10^6 infected erythrocytes (iE) and the AUC(0-t) ([2]; po, 5 mg/kg) is reported as 25300 ng·h/mL. It also gave a Cmax ([2]; po, 5 mg/kg) of 598 ng/mL, an AUC(0-t) ([2]; po, 10 mg/kg) of 21800 ng·h/mL and a Cmax ([2]; po, 10 mg/kg) of 346 ng/mL. For the same molecule, the AUC(0-t) ([2]; po, 25 mg/kg) was 41900 ng·h/mL, the Cmax ([2]; po, 25 mg/kg) was 414 ng/mL and the Tmax ([2]; po, 25 mg/kg) was 77 h. It also gave an AUC0toTlast ([2]; po, 40 mg/kg) of 38866 ng·h/mL, an AUC(0-t) ([2]; po, 40 mg/kg) of 70000 ng·h/mL and a Cmax ([2]; po, 40 mg/kg) of 1120 ng/mL. The AUC(0-t) ([2]; po, 75 mg/kg) was 355000 ng·h/mL, the Cmax ([2]; po, 75 mg/kg) was 2550 ng/mL and the Tmax ([2]; po, 75 mg/kg) was 109 h. For the same molecule, the “accumulation in erythrocytes of infected individuals” value ([3]; PfalcHuMouse, infected individuals) was > 99%, the “fraction associated with circulating erythrocytes” value [3] was “Approximately 97.5%” and the “fraction found in plasma” value [3] was 2.5%.

For c1cc([C@H]2CC[C@]3(CC2)OO[C@]2(O3)C3CC4CC(C3)CC2C4)ccc1OCCN1CCOCC1 [artefenomel], the “coefficient … of cure log(p/1−p)” value [1, 4] was 16.2, the “coefficient … of cure log(p/1−p)” value [1, 5] was 1.6 and the “pattern of interaction with piperaquine on parasite killing in vivo” value ([1]; graphic analysis of cure, assuming potency of artefenomel in the same order of magnitude as piperaquine) was “synergistic”. For the same molecule, the “mechanistic pattern of interaction with ferroquine” value ([1]; graphic analysis of cure, conditioned by large difference in intrinsic potency) was “additivity”, the “exposure up to which no cures were available in monotherapy” value ([1]; monotherapy, schedules of treatment used in the experimental studies) was “up to 4.7 × 10^−3 nmol/10^6 iE” and the AUC(0-t) ([2]; po, 100 mg/kg) was 40900 ng·h/mL. The Cmax ([2]; po, 100 mg/kg) was 2200 ng/mL and the Tmax ([2]; po, 100 mg/kg) was 2 h.

With COc1ccc2nc3cc(Cl)ccc3c(Nc3cc(CN4CCCC4)c(O)c(CN4CCCC4)c3)c2n1 [pyronaridine] the “day after which no recrudescence occurred (DoR)” value [1] was ≤ 35 days.

With CNC[c-]1cccc1CNc1ccnc2cc(Cl)ccc12.[Fe+2].c1cc[cH-]c1 (stereo not shown) [SSR97213] the “share of the total exposure of ferroquine plus SSR97213” value ([2]; average, main metabolite of ferroquine) was 40%.

For ferroquine, the “coefficient … of cure log(p/1−p)” value [1, 5] was 5.4, the “exposure leading to 95% probability of cure” value ([1]; monotherapy) was 0.58 × 10^−3 nmol/10^6 infected erythrocytes (iE) and the AUC0toTlast ([2]; 20 mg/kg) was 4708 ng·h/mL. The “fraction associated with circulating erythrocytes” value [3] was “Approximately 97.5%” and the “fraction found in plasma” value [3] was 2.5%.

For CCCCN(CCCC)CC(O)c1cc(Cl)cc2c1-c1ccc(Cl)cc1/C2=C/c1ccc(Cl)cc1 (stereo not shown) [lumefantrine], the “day after which no recrudescence occurred (DoR)” value [1] was ≤ 35 days.
